Experimental data published in patent US20120201749A1, “NP-1 Antagonists and Their Therapeutic Use” (priority 2009, published 2012).
“And” between values parts separate entries of the source, which are not always exact repeats. Equal entries are not always repeated.

Tests used:
[1] = system: human non-small-cell lung carcinoma A549 cells; experiment: Lung cancer in vivo study, A549 xenografts in nude mice
Description: For the efficacy study, human non-small-cell lung carcinoma A549 cells were cultured in growth medium RPMI 1640. The cells at 90% confluence were detached, counted and suspended in PBS to make the final concentration of cells 5×10^7/ml for inoculation.
The compound administration began two weeks after A549 cells were inoculated in female Balb/c nude mice. Compound 58 was dosed intraperitoneally at 80 mg/kg daily for a period of 2 weeks. Tumour volume was monitored by measuring the length and the width of the tumour using an electronic digital caliper (Fisher Scientific) daily for a period of 2 weeks. Tumour volumes were calculated using a formula (length×width^2/2). At the end of the experiment, tumours were dissected and weighed.

NP-1 = NP-1 (Homo sapiens, UniProt O14786); experiment: Biotinylated-VEGF-A165 (bt-VEGF-A165) binding to NP-1; conditions: for inhibition at 3 µM: 3 μM compound, read-out: Screen (% inhibition at 3 μM); for inhibition at 30 µM: 30 μM compound, read-out: Screen (% inhibition at 30 μM)
How it was run: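 Both formats: compound with bt-VEGF-A165 for 2 h at room temperature, detection via streptavidin-HRP at A450 (ref A595). Cell-based: Ad.NP-1-transfected DU145 cells, 2 nM tracer, nonspecific from 100-fold unlabelled VEGF-A165. Cell-free: NP-1-coated wells (3 μg/ml), 0.25 nM tracer, nonspecific from uncoated wells.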

NP-1, sequence (O14786 22-923): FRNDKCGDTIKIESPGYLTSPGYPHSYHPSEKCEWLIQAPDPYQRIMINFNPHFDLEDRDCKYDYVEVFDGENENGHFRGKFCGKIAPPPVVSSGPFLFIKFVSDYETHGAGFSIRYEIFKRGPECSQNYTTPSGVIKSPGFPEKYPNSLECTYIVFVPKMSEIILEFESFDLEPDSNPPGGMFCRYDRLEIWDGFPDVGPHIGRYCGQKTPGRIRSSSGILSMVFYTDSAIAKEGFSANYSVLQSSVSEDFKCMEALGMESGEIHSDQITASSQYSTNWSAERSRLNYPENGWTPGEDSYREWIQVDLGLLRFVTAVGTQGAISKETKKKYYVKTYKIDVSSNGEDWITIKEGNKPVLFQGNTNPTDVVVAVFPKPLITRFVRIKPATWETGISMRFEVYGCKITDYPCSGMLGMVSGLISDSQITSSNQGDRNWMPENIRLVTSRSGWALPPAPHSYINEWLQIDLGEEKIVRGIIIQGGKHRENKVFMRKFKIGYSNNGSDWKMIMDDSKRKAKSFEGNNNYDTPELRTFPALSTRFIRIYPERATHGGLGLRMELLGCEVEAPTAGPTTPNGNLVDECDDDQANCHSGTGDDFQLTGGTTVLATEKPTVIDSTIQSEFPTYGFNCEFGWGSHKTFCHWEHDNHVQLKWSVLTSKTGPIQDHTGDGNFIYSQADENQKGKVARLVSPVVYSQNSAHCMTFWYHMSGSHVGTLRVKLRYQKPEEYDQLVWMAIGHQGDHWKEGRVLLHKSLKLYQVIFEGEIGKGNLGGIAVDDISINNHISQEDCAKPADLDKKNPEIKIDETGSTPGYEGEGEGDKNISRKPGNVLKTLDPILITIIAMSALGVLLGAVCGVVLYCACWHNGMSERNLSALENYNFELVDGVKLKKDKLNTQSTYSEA

| Compound | inhibition at 3 µM (NP-1) | inhibition at 30 µM (NP-1) | further results |
| --- | --- | --- | --- |
| N=C(N)NCCC[C@H](NC(=O)c1sccc1NS(=O)(=O)c1cccc(NCc2csc(N3CCNCC3)n2)c1)C(=O)O [Compound 58, (S)-5-guanidino-2-[(3-{3-[(2-piperazin-1-yl-thiazol-4-ylmethyl)-amino]-benzenesulfonylamino}-thiophene-2-carbonyl]-amino]-pentanoic acid] | 72% | 96% | reduction of the rate of tumour growth ([1]; 80 mg/kg intraperitoneally daily for 2 weeks, A549 tumours, p=0.017 by linear regression test): 52% and 50%; tumour weight reduced by ([1]; 80 mg/kg intraperitoneally daily for 2 weeks, tumours weighed at end of experiment, p=0.04 by Mann Whitney test): 27%; effect on rate of tumour growth (in words) ([1]; preclinical model of lung cancer): significantly reduced the rate of tumour growth; evidence of toxicity ([1]; single daily dose for two weeks, murine model of lung cancer): No evidence of toxicity; IC50 (NP-1): 0.159 µM |
| N=C(N)NCCC[C@H](NC(=O)c1sccc1NS(=O)(=O)c1cccc(NCc2csc(N3CCOCC3)n2)c1)C(=O)O [Compound 71, (S)-5-guanidino-2-[(3-{3-[(2-morpholin-4-yl-thiazol-4-ylmethyl)-amino]-benzenesulfonylamino}-thiophene-2-carbonyl]-amino]-pentanoic acid] | 53% | 91% | – |
| N=C(N)NCCC[C@H](NC(=O)c1sccc1NS(=O)(=O)c1cccc(NCc2csc(C(=O)O)n2)c1)C(=O)O [Compound 72] | 31% | 83% | – |
| CCN(Cc1ccncc1)c1nc(CNc2cccc(S(=O)(=O)Nc3ccsc3C(=O)N[C@@H](CCCNC(=N)N)C(=O)O)c2)cs1 [Compound 73, (S)-2-{[3-(3-{[2-(Ethyl-pyridin-4-ylmethyl-amino)-thiazol-4-ylmethyl]-amino}-benzenesulfonylamino)-thiophene-2-carbonyl]-amino}-5-guanidino-pentanoic acid] | 69% | – | – |
| N=C(N)NCCC[C@H](NC(=O)c1sccc1NS(=O)(=O)c1cccc(NCc2csc(N3CCN(c4cnccn4)CC3)n2)c1)C(=O)O [Compound 74] | 55% | – | – |

Continued, in another order:

| inhibition at 3 µM (NP-1) | inhibition at 30 µM (NP-1) | Compound | further results |
| --- | --- | --- | --- |
| 63% | – | N=C(N)NCCC[C@H](NC(=O)c1sccc1NS(=O)(=O)c1cccc(NCc2csc(N3CCN(c4ncncn4)CC3)n2)c1)C(=O)O [Compound 75, (S)-5-guanidino-2-{[3-(3-{[2-(4-[1,3,5]triazin-2-yl-piperazin-1-yl)-thiazol-4-ylmethyl]-amino}-benzenesulfonylamino)-thiophene-2-carbonyl]-amino}-pentanoic acid] | – |
| 68% | – | N=C(N)NCCC[C@H](NC(=O)c1sccc1NS(=O)(=O)c1cccc(NCc2csc(N3CCN(c4nccs4)CC3)n2)c1)C(=O)O [Compound 76, (S)-5-guanidino-2-{[3-(3-{[2-(4-thiazol-2-yl-piperazin-1-yl)-thiazol-4-ylmethyl]-amino}-benzenesulfonylamino)-thiophene-2-carbonyl]-amino}-pentanoic acid] | – |
| 47% | – | N=C(N)NCCC[C@H](NC(=O)c1sccc1NS(=O)(=O)c1cccc(NCc2csc(N3CCN(CCO)CC3)n2)c1)C(=O)O [Compound 77, (S)-5-Guanidino-2-({3-[3-({2-[4-(2-hydroxy-ethyl)-piperazin-1-yl]-thiazol-4-ylmethyl}-amino)-benzenesulfonylamino]-thiophene-2-carbonyl}-amino)-pentanoic acid] | IC50 (NP-1): 3.7 µM |
